Literature values, collected in patent US20100172957A1, “EFLUCIMIBE MEDICAMENTS FOR PREVENTING/TREATING A DISEASE DUE TO SEBACEOUS GLAND DYSFUNCTION IN HUMANS OR ANIMALS” (GALDERMA RESEARCH & DEVELOPMENT, priority 2007, published 2010).

Tested on: sebum production
Settings: current treatment, background statement

## CC1=C(/C=C/C(C)=C/C=C/C(C)=C\C(=O)O)C(C)(C)CCC1 [isotretinoin]
  decrease of sebum production: ~90%
